Patent US10799507B2, “5-(7H-pyrrolo[2,3-d]pyrimidin-4-yl)-5-azaspiro[2.5]octane-8-carboxylic acid derivatives as novel JAK kinase inhibitors” (LEO Pharma A/S, priority 2017, dated 2020)

How the values were obtained:
Format in all cases: biochemical
JAK3 = JAK3 (Homo sapiens (Human), UniProt P52333); assay: JAK kinase assay (HTRF), JAK3; details: catalytic domain, ATP at Km (2 μM)
Experimental: (§1) Human baculovirus-expressed JAK1, 2, 3 and TYK2 were purchased from Carna Biosciences, Inc. All four purified enzymes contain only the catalytic domain. JAK1 (aa 850-1154) and TYK2 (aa 871-1187) are expressed with an N-terminally fused GST-tag, and JAK2 and JAK3 with an N-terminally fused His-tag.
(§2) Inhibition of phosphorylation of a synthetic peptide was measured in an HTRF-based assay using the TK substrate-Biotin from the Cisbio HTRFKinEASE TK kit. First, 2 μl of TK solution (TK substrate-biotin in kinase buffer [1× enzymatic buffer from HTRFKinEASE TK kit, 1 mM DTT]) is added to a plate containing 1 μl prediluted compound (final assay concentration DMSO: 0.75%). Then, 5 μl kinase-ATP mix (prepared in kinase buffer) is added to the wells and the plates are incubated at RT for 20-30 min. For all four kinases a concentration of ATP that corresponded to the Km for ATP was used. The final concentrations of buffers, substrate, kinase and ATP were: JAK1: 50 mM Hepes buffer pH 7.0, 0.01% BSA, 10 mM MgCl2, 1 mM DTT, 7 μM ATP, 50 nM SEB, 1 μM TK Substrate-Biotin and 5 ng JAK1; JAK2: 50 mM Hepes buffer pH 7.0, 0.01% BSA, 5 mM MgCl2, 1 mM DTT, 4 μM ATP, 1 μM TK Substrate-Biotin and 0.1 ng JAK2; JAK3: 50 mM Hepes buffer pH 7.0, 0.01% BSA, 5 mM MgCl2, 1 mM DTT, 2 μM ATP, 1 μM TK Substrate-Biotin and 0.3 ng JAK3; TYK2: 50 mM Hepes buffer pH 7.0, 0.01% BSA, 5 mM MgCl2, 1 mM DTT, 13 μM ATP, 50 nM SEB, 1 μM TK Substrate-Biotin and 0.8 ng TYK2. Thereafter, the kinase reaction is stopped by adding 4 μl detection mix (final concentrations: 50 mM Hepes buffer pH 7.0, 0.01% BSA, 0.8 M KF, 20 mM EDTA, 42 nM Streptavidin-XL665 and 1:400 STK Ab Cryptate) and the plates are incubated overnight in the dark. The HTRF signal is read using an Envision plate reader.
(§3) In Table 1 selected JAK kinase inhibitory activities are listed along with analytical tR and observed M+H^+ data (UPLC-MS method 7).

JAK2 = JAK2 (Homo sapiens (Human), UniProt O60674); assay: JAK kinase assay (HTRF), JAK2; details: catalytic domain, ATP at Km (4 μM)
Experimental: as §1, §2

TYK2 = TYK2 (Homo sapiens (Human), UniProt P29597); assay: JAK kinase assay (HTRF), TYK2; details: catalytic domain, ATP at Km (13 μM)
Experimental: as §1, §2, §3

JAK1 = JAK1 (Homo sapiens (Human), UniProt P23458); assay: JAK kinase assay (HTRF), JAK1; details: catalytic domain, ATP at Km (7 μM)
Experimental: as §1, §2

Chain of JAK1 (P23458 850-1154): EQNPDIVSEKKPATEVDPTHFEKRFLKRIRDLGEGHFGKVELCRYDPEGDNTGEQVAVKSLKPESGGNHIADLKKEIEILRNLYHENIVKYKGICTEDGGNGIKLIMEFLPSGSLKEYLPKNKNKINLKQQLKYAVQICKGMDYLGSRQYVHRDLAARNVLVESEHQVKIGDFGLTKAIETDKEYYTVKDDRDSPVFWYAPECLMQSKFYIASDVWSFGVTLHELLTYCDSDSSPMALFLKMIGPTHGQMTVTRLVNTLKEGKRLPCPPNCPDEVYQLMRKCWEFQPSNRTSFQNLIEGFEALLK
Chain of JAK2 (O60674 849-1124): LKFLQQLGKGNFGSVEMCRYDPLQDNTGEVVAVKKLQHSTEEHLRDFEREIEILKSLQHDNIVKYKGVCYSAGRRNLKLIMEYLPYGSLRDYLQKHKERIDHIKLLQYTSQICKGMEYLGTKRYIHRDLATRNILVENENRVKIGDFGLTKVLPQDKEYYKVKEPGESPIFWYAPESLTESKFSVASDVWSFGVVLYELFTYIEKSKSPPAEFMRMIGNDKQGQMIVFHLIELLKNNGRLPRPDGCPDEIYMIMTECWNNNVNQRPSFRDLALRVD
Chain of TYK2 (P29597 871-1187): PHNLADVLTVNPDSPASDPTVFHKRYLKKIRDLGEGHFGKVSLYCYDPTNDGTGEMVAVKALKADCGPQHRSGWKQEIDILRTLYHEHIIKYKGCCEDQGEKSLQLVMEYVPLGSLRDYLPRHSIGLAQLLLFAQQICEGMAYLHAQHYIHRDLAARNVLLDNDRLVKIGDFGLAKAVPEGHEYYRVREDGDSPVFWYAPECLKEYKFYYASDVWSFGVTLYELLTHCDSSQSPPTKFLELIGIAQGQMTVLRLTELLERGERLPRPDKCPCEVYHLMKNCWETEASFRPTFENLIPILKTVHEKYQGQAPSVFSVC
Chain of JAK3 (P52333 822-1111): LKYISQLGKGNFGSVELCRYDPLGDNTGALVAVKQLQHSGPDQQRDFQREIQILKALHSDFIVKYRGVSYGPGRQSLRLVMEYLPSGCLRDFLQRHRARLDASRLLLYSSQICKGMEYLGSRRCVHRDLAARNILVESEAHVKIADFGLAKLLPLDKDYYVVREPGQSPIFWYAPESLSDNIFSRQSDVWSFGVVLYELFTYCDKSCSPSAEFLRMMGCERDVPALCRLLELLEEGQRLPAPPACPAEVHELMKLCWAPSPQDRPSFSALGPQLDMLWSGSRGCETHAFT

| Structure (SMILES) | EC50 (JAK3) | EC50 (JAK2) | EC50 (TYK2) | EC50 (JAK1) |
| --- | --- | --- | --- | --- |
| N#C[C@@H]1C[C@H]1CNC(=O)C1CCN(c2ncnc3[nH]ccc23)CC12CC2 (stereo partly drawn) [Example 102, N-[[(1R,2R)-2-cyanocyclopropyl]methyl]-5-(7H-pyrrolo[2,3-d]pyrimidin-4-yl)-5-azaspiro[2.5]octane-8-carboxamide] | 35 nM | 26.2 nM | 531 nM | 9.5 nM |
| C[C@H](NC(=O)[C@H]1CCN(c2ncnc3[nH]ccc23)CC12CC2)[C@@H](O)c1ccccn1 [Example 104, (8S)-N-[(1S,2R)-2-hydroxy-1-methyl-2-(2-pyridyl)ethyl]-5-(7H-pyrrolo[2,3-d]pyrimidin-4-yl)-5-azaspiro[2.5]octane-8-carboxamide] | 163 nM | 30.3 nM | 149 nM | 10.1 nM |
| N#Cc1cccc([C@H](O)CNC(=O)[C@H]2CCN(c3ncnc4[nH]ccc34)CC23CC3)c1 [Example 106, (8S)-N-[(2S)-2-(3-cyanophenyl)-2-hydroxy-ethyl]-5-(7H-pyrrolo[2,3-d]pyrimidin-4-yl)-5-azaspiro[2.5]octane-8-carboxamide] | 44.7 nM | 25.2 nM | 110 nM | 10.2 nM |
| C[C@H](NC(=O)[C@H]1CCN(c2ncnc3[nH]ccc23)CC12CC2)[C@H](O)c1ccc(F)cn1 [Example 107, (8S)-N-[(1S,2S)-2-(5-fluoro-2-pyridyl)-2-hydroxy-1-methyl-ethyl]-5-(7H-pyrrolo[2,3-d]pyrimidin-4-yl)-5-azaspiro[2.5]octane-8-carboxamide] | 57.7 nM | 14.5 nM | 125 nM | 10.3 nM |
| N#Cc1ccc([C@@H](CO)NC(=O)[C@H]2CCN(c3ncnc4[nH]ccc34)CC23CC3)nc1 [Example 108, (8S)-N-[(1S)-1-(5-cyano-2-pyridyl)-2-hydroxy-ethyl]-5-(7H-pyrrolo[2,3-d]pyrimidin-4-yl)-5-azaspiro[2.5]octane-8-carboxamide] | 85.1 nM | 48.2 nM | 347 nM | 10.3 nM |
| COc1cc(F)ccc1[C@H](CO)NC(=O)[C@H]1CCN(c2ncnc3[nH]ccc23)CC12CC2 [Example 109, (8S)-N-[(1R)-1-(4-fluoro-2-methoxy-phenyl)-2-hydroxy-ethyl]-5-(7H-pyrrolo[2,3-d]pyrimidin-4-yl)-5-azaspiro[2.5]octane-8-carboxamide] | 111 nM | 24.5 nM | 243 nM | 10.5 nM |
| N#CCC1(CNC(=O)C2CCN(c3ncnc4[nH]ccc34)CC23CC3)CC1 (stereo not shown) [Example 112, N-[[1-(cyanomethyl)cyclopropyl]methyl]-5-(7H-pyrrolo[2,3-d]pyrimidin-4-yl)-5-azaspiro[2.5]octane-8-carboxamide] | 46 nM | 32.7 nM | 518 nM | 11.3 nM |
| O=C(NCCc1ccccc1)C1CCN(c2ncnc3[nH]ccc23)CC12CC2 (stereo not shown) [Example 114, N-phenethyl-5-(7H-pyrrolo[2,3-d]pyrimidin-4-yl)-5-azaspiro[2.5]octane-8-carboxamide] | 64.8 nM | 37 nM | 858 nM | 11.7 nM |
| O=C(NCC1CCC1)C1CCN(c2ncnc3[nH]ccc23)CC12CC2 (stereo not shown) [Example 115, N-(cyclobutylmethyl)-5-(7H-pyrrolo[2,3-d]pyrimidin-4-yl)-5-azaspiro[2.5]octane-8-carboxamide] | 92.4 nM | 23.6 nM | 364 nM | 12.2 nM |
| O=C(N[C@H](CO)C(=O)OCC1(CO)CC1)[C@H]1CCN(c2ncnc3[nH]ccc23)CC12CC2 [Example 116, [1-(hydroxymethyl)cyclopropyl]methyl (2R)-3-hydroxy-2-[[(8S)-5-(7H-pyrrolo[2,3-d]pyrimidin-4-yl)-5-azaspiro[2.5]octane-8-carbonyl]amino]propanoate] | 47.8 nM | 24.7 nM | 210 nM | 12.4 nM |
| CC(CO)(NC(=O)C1CCN(c2ncnc3[nH]ccc23)CC12CC2)c1ccccc1 (stereo not shown) [Example 118, N-(2-hydroxy-1-methyl-1-phenyl-ethyl)-5-(7H-pyrrolo[2,3-d]pyrimidin-4-yl)-5-azaspiro[2.5]octane-8-carboxamide] | 77.7 nM | 24.3 nM | 832 nM | 13.1 nM |
| COc1cccc(CNC(=O)C2CCN(c3ncnc4[nH]ccc34)CC23CC3)c1 (stereo not shown) [Example 119, N-[(3-methoxyphenyl)methyl]-5-(7H-pyrrolo[2,3-d]pyrimidin-4-yl)-5-azaspiro[2.5]octane-8-carboxamide] | 71.1 nM | 36.8 nM | 539 nM | 13.4 nM |
| COc1cc(C#N)ccc1[C@H](CO)NC(=O)[C@H]1CCN(c2ncnc3[nH]ccc23)CC12CC2 [Example 120, (8S)-N-[(1R)-1-(4-cyano-2-methoxy-phenyl)-2-hydroxy-ethyl]-5-(7H-pyrrolo[2,3-d]pyrimidin-4-yl)-5-azaspiro[2.5]octane-8-carboxamide] | 154 nM | 40.2 nM | 392 nM | 13.7 nM |
| CCc1cc(C#N)ccc1[C@@H](C)NC(=O)[C@H]1CCN(c2ncnc3[nH]ccc23)CC12CC2 [Example 121, (8S)-N-[(1R)-1-(4-cyano-2-ethyl-phenyl)ethyl]-5-(7H-pyrrolo[2,3-d]pyrimidin-4-yl)-5-azaspiro[2.5]octane-8-carboxamide] | 141 nM | 44.7 nM | 289 nM | 15.3 nM |
| O=C(N[C@@H](CO)c1ccccn1)[C@H]1CCN(c2ncnc3[nH]ccc23)CC12CC2 [Example 122, (8S)-N-[(1R)-2-hydroxy-1-(2-pyridyl)ethyl]-5-(7H-pyrrolo[2,3-d]pyrimidin-4-yl)-5-azaspiro[2.5]octane-8-carboxamide] | 153 nM | 37.3 nM | 203 nM | 16.3 nM |
| C[C@H](NC(=O)[C@H]1CCN(c2ncnc3[nH]ccc23)CC12CC2)[C@H](O)c1ccc(C#N)cc1 [Example 126, (8S)-N-[(1S,2R)-2-(4-cyanophenyl)-2-hydroxy-1-methyl-ethyl]-5-(7H-pyrrolo[2,3-d]pyrimidin-4-yl)-5-azaspiro[2.5]octane-8-carboxamide] | 29.8 nM | 25.7 nM | 987 nM | 19.5 nM |
| O=C(NCc1cccnc1)C1CCN(c2ncnc3[nH]ccc23)CC12CC2 (stereo not shown) [Example 128, N-(3-pyridylmethyl)-5-(7H-pyrrolo[2,3-d]pyrimidin-4-yl)-5-azaspiro[2.5]octane-8-carboxamide] | 58.6 nM | 38.2 nM | 1410 nM | 20.5 nM |
| O=C(NCC1(CO)CC(F)(F)C1)[C@H](O)CNC(=O)[C@H]1CCN(c2ncnc3[nH]ccc23)CC12CC2 [Example 129, (8S)-N-[(2R)-3-[[3,3-difluoro-1-(hydroxymethyl)cyclobutyl]methylamino]-2-hydroxy-3-oxo-propyl]-5-(7H-pyrrolo[2,3-d]pyrimidin-4-yl)-5-azaspiro[2.5]octane-8-carboxamide] | 41.1 nM | 37.6 nM | 385 nM | 21.2 nM |
| O=C(N[C@H](CO)C1CCCCC1)[C@H]1CCN(c2ncnc3[nH]ccc23)CC12CC2 [Example 132, (8S)-N-[(1S)-1-cyclohexyl-2-hydroxy-ethyl]-5-(7H-pyrrolo[2,3-d]pyrimidin-4-yl)-5-azaspiro[2.5]octane-8-carboxamide] | 162 nM | 94.5 nM | 665 nM | 25.3 nM |
